Among the data in patent US20130023555A1, “KINASE INHIBITOR WITH IMPROVED SOLUBILITY PROFILE” (Abbott Laboratories, priority 2011, published 2013) are IC50 values, retold here.

The structures appear in SMILES notation.

The test addresses T1, FLT3 (Homo sapiens, UniProt P36888).
T1 construct: FLT3 Q569- S993; M-His(6) (N)
T1 sequence (P36888 569-993): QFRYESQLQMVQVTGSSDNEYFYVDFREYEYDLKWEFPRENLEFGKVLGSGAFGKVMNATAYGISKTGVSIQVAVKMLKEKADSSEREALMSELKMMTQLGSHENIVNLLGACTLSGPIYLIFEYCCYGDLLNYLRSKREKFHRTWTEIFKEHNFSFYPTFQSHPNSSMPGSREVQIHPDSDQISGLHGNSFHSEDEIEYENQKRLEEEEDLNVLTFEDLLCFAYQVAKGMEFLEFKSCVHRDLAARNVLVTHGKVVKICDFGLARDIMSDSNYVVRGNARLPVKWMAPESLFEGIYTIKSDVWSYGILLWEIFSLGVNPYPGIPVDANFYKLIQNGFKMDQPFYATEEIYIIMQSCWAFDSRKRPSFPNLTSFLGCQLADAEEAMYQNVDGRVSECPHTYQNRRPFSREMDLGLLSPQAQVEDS
Briefly: HTRF in vitro kinase assay, FLT3. Type of test: biochemical. To be noted: 1 mM ATP. How it is done: To determine the activity of the various kinases, a homogenous time-resolved fluorescence (HTRF) in vitro kinase assay was used. (Mathis, G., HTRF(R) Technology. J Biomol Screen, 1999. 4(6): p. 309-314; Alfred J. Kolb, Paul V. Kaplita, David J. Hayes, Young-Whan Park, Christine Pernell, John S. Major and Gerard Mathis, Drug Discovery Today, 1998, 3, 333-342.)
For example for KDR, cKIT, FLT1, CSF1R and FTL3, purified enzyme was mixed with 0.5 μM N-biotinylated substrate (Biotin-Ahx-[…]-amide (SEQ. ID. 1)), various concentrations of inhibitor in reaction buffer (50 mM HEPES, pH 7.1, 10 mM MgCl2, 2 mM MnCl2, 0.1% BSA and 1 mM DTT, 40 μL final volume), ATP (1 mM final conc.) in a black 384-well plate. […] The quenched reaction was allowed to stand at room temperature for 3 hours and was then read in a time-resolved fluorescence detector (InVision, Perkin-Elmer) at 620 nm and 665 nm sequentially with excitation. The ratio between the signal of 620 nm and 665 nm was used in the calculation of the IC50.
(In general: TR-FRET usually uses a lanthanide donor and a delayed reading to cut background.)

For orientation: IC50 means the concentration at which inhibition is half-maximal.

With `CNC(=O)c1cnc(N)c2c(-c3ccc(NC(=O)Nc4cccc(C)c4)cc3)csc12` [Example 2, 4-amino-N-methyl-3-(4-{[(3-methylphenyl)carbamoyl]amino}phenyl)thieno[3,2-c]pyridine-7-carboxamide], the concentration for half-maximal inhibition (IC50) is 2 nM. In other words, the single-digit nanomolar range.
